Test results: paper PMC7983974 (Basic & Clinical Pharmacology & Toxicology, 2020)
pIC50: −log10 of the molar value.

Legend:
Type in all cases: in vitro ADME
[1] = tested on: pooled human kidney microsomes; assay: Isoform-specific UGT inhibitors on M1 formation in human kidney microsomes; conditions: inhibitor 10 µmol L^−1; molidustat 4.9 µmol L^−1; n = 2
[2] = tested on: pooled human intestine microsomes; assay: Isoform-specific UGT inhibitors on M1 formation in human intestine microsomes; conditions: inhibitor 10 µmol L^−1; molidustat 4.9 µmol L^−1; n = 2
[3] = tested on: pooled human liver microsomes; assay: Isoform-specific UGT inhibitors on M1 formation in human liver microsomes; conditions: inhibitor 10 µmol L^−1
[4] = target: T1, UGT-mediated glucuronidation of molidustat in human liver microsomes (HLMs) (Homo sapiens, UniProt P22309); assay: Inhibition of M1 formation from molidustat in pooled human liver microsomes; conditions: pooled HLMs 0.3 mg/mL, molidustat 5 µmol/L, 30 min, N=1; Table 1
T1 sequence (P22309 26-533): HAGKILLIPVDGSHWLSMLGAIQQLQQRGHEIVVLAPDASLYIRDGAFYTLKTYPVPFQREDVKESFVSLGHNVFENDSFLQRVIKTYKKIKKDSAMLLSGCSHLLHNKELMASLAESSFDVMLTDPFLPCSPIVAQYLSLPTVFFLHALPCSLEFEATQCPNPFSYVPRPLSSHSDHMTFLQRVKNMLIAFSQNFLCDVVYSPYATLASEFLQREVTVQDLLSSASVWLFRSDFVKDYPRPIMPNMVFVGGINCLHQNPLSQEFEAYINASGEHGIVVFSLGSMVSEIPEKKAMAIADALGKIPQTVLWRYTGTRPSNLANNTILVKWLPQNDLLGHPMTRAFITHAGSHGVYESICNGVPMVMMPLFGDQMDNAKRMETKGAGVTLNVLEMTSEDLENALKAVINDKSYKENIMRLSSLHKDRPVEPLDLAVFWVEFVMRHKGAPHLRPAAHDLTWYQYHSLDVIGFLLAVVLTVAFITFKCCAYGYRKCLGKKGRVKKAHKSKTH

Compound	M1 formation in % of control in microsomal tissue, Kidney [1]	M1 formation in % of control in microsomal tissue, Intestine [2]	inhibitory activity on M1 formation ([3]; liver, intestine and kidney microsomes)	M1 formation in % of control in microsomal tissue, Liver ([3]; molidustat 4.9 µmol L^−1, n = 2)	pIC50 [4]
Hecogenin	102.4%	106.0%	none or very little activity	104.7%	
C#C[C@]1(O)CC[C@H]2[C@@H]3CCc4cc(O)ccc4[C@H]3CC[C@@]21C [17a‐Ethynylestradiol]					4.97
Cc1ccc(C)c(OCCCC(C)(C)C(=O)O[C@@H]2O[C@H](C(=O)O)[C@@H](O)[C@H](O)[C@H]2O)c1 [Gemfibrozil glucuronide]					4.02
